Data as given in patent US20230190777A1, “MAMMALIAN MILK OLIGOSACCHARIDES PREVENT VIRAL INFECTION OF HUMAN EPITHELIUM” (The Regents of the University of California, priority 2020, published 2023).
Read-outs that look alike come from different tables or passages of the source.

Assays:
[1] = tested on: human coronavirus (HCoV-229E); experiment: HCoV-229E infection of A549 cells after HMO pre-incubation (imaging of adherent cells); format: cell-based; details: HMO 2 mg/ml pre-incubated 16 hours, MOI 0.01, up to three days post-infection (FIG. 2)
Method: Monkey kidney epithelial (MK2-LLC) cells or human alveolar epithelial (A549) cells were seeded in 12-well plates at 1E5 cells per well.
24-hours post incubation, cells were washed with serum-free media and incubated with the particular HMO at 2 mg/ml final concentration.
16-hours post HMO incubation, the particular virus (for MK2-LLC cells this was Tulane virus, at a multiplicity of infection (MOI) of 0.001; for A549 cells this was human coronavirus (HCoV-229E), at an MOI of 0.01) was added and infection was allowed to proceed.
Images of adherent (live) cells were recorded two-days post infection after aspirating and washing cells with PBS. All wells were washed on Day 3 prior to imaging.
It was hypothesized that HMOs enhance cellular adhesion, cell structural integrity and modulate tight junction proteins as a generalized function regardless of the organ from which the epithelial cells are derived, and this function in turn alters the response to pathogenic challenges. […] As proof-of-concept, human alveolar epithelial (A549) cells were incubated in the presence of physiological levels of an HMO (2′-FL or 3′-SL) for 16 hours and infected the cells with a human coronavirus (HCoV-229E).

[2] = tested on: human coronavirus (HCoV-229E); format: cell-based; details: HMO 2 mg/ml or 5 mg/ml for 16 hours before HCoV-229E (MOI 0.01), 48 hours of viral infection (FIG. 4)
[3] = tested on: Tulane virus; experiment: Tulane virus infection of MK2-LLC cells after HMO pre-incubation (imaging of adherent cells); format: cell-based, monkey; details: HMO 2 mg/ml pre-incubated 16 hours, MOI 0.001, compared to cells in the absence of an HMO (FIG. 1)
[4] = tested on: human coronavirus (HCoV-229E); format: cell-based; details: A549 cells, MOI 0.01, three days post infection (FIG. 3)
[5] = tested on: Type I (IFN-α1, IFN-β1) and Type III interferons (IFN-λ1, IFN-λ2, and IFN-λ3); experiment: Host-cell interferon response during HCoV-229E infection of A549 cells (real-time PCR); format: cell-based, human; details: HMO 2 mg/ml pre-incubated 16 hours, MOI 0.01, 24 hours post infection (FIG. 6)
[6] = HMO 2 mg/ml added simultaneously with HCoV-229E ('During')
[7] = HMO 2 mg/ml added two hours post viral adsorption ('After')

| Compound | A549 epithelial cell morphology after HCoV-229E infection [1] | A549 cell viability (live cell fluorescence, Calcein-AM) [2] | cellular adherence and cell viability in the presence of Tulane virus [3] | loss of adherent cells, virus-mediated loss of cell viability and cytopathogenic effects [4, 6] | loss of adherent cells, virus-mediated loss of cell viability and cytopathogenic effects [4, 7] | Type I and Type III interferon response (fold-induction) during HCoV-229E infection [5] |
| --- | --- | --- | --- | --- | --- | --- |
| 2′-Fucosyllactose [2′-FL] | little or no change in A549 epithelial cell morphology | retain viability | increased cellular adherence and cell viability | reduced the loss of adherent cells, the virus-mediated loss of cell viability and the cytopathogenic effects | reduced the loss of adherent cells, the virus-mediated loss of cell viability and the cytopathogenic effects | dramatically attenuated |
| CC(=O)N[C@H]1[C@H]([C@H](O)[C@H](O)CO)O[C@@](O[C@H]2[C@@H](O)[C@@H](CO)O[C@@H](O[C@H]3[C@H](O)[C@@H](O)C(O)O[C@@H]3CO)[C@@H]2O)(C(=O)O)C[C@@H]1O (stereo partly shown) [3′-SL, 3′-sialyllactose] | little or no change in A549 epithelial cell morphology | retain viability | increased cellular adherence and cell viability | reduced the loss of adherent cells, the virus-mediated loss of cell viability and the cytopathogenic effects | reduced the loss of adherent cells, the virus-mediated loss of cell viability and the cytopathogenic effects | dramatically attenuated |
| Lacto-N-fucopentaose I [LNFP I] | – | – | increased cellular adherence and cell viability | – | – | – |
